In ChEMBL document CHEMBL4483862, “Open-source discovery of chemical leads for next-generation chemoprotective antimalarials” (2018):

System: Plasmodium berghei
Assay: Luciferase/luciferin-expressing antifolate-resistant parasites were used to infect a culture of HepG2 cells that were pre-incubated with compounds. Infected hepatocytes emit light due to the luciferase reaction. Assay results are presented as the percent inhibition of light emission compared to control. […]
Type: functional
Settings: sporozoite; for IC90: read-out: LUCIFERASE INFECTION ASSAY - IC90
[1] = read-out: LUCIFERASE INFECTION ASSAY - IC50

SMILES | IC90 | also measured
COc1ccc(-c2nccc3n[nH]c(-c4cccc(C(F)(F)F)c4)c23)cc1OC | > 10 µM | IC50 (PBLUC_HILL_SLOPE 15.9, PBLUC_R_SQUARED 0.0621, read-out: LUCIFERASE INFECTION ASSAY - IC50): 9.75 µM
CC(=O)Nc1ccc(-c2ccc3ncc(-c4ccc(CO)cc4)n3n2)cc1 | > 10 µM | IC50 (HEPG2TOX_HILL_SLOPE 0.612, HEPG2TOX_R_SQUARED 0.859, PBLUC_HILL_SLOPE 1.16, PBLUC_R_SQUARED 0.655, read-out: LUCIFERASE INFECTION ASSAY - IC50): 1.9 µM
CNC(=O)c1ccc(CN(Cc2csc(-c3ccsc3)n2)Cc2ccco2)cc1 | 3.26 µM | IC50 (PBLUC_HILL_SLOPE 16.0, 14.5, PBLUC_R_SQUARED 0.463, 0.641, read-out: LUCIFERASE INFECTION ASSAY - IC50): 2.83 µM
COC(=O)c1cc(OC)c(OC)cc1NC(=O)c1ccccc1Br | > 8.37 µM | IC50 [1]: > 8.37 µM
CC(C)c1ccc(-n2c(SCc3c(F)cccc3Cl)nnc2-c2ccc(C(C)(C)C)cc2)cc1 | 5.28 µM | IC50 (HEPG2TOX_HILL_SLOPE 7.75, HEPG2TOX_R_SQUARED 0.388, PBLUC_HILL_SLOPE 5.31, PBLUC_R_SQUARED 0.644, read-out: LUCIFERASE INFECTION ASSAY - IC50): 3.49 µM
N#Cc1ccc(-c2cnc3cnc(/C=C/c4ccccc4)cn23)cc1 | 1.49 µM | IC50 (PBLUC_HILL_SLOPE 4.44, PBLUC_R_SQUARED 0.805, read-out: LUCIFERASE INFECTION ASSAY - IC50): 0.909 µM
CCCCCc1c(C(=O)OCC)[nH]c(C)c1C | > 13.9 µM | IC50 (HEPG2TOX_HILL_SLOPE 1.75, HEPG2TOX_R_SQUARED 0.784, PBLUC_HILL_SLOPE 1.37, PBLUC_R_SQUARED 0.743, read-out: LUCIFERASE INFECTION ASSAY - IC50): 5.49 µM
Cn1c(N)c(C(=O)c2cccc(S(=O)(=O)N3CCc4ccccc43)c2)c(=O)[nH]c1=O | > 10 µM | IC50 (PBLUC_HILL_SLOPE 10, PBLUC_R_SQUARED 0.0166, read-out: LUCIFERASE INFECTION ASSAY - IC50): > 10 µM
CC(=O)NCc1ccc(C(=O)Nc2ccccc2O)cc1 | 9.91 µM | IC50 (PBLUC_HILL_SLOPE 1.36, PBLUC_R_SQUARED 0.725, read-out: LUCIFERASE INFECTION ASSAY - IC50): 1.97 µM
CC(c1nc(=O)c2c(-c3ccccc3)csc2[nH]1)N(C)Cc1ccccc1N1CCCC1 (centres undefined) | > 10 µM | IC50 [1]: > 10 µM
CCCCNC(=O)c1c(NC(=O)c2ccccc2C)nc2ccc(C)cn12 | > 9.05 µM | IC50 [1]: 6.48 µM
Cc1cc(C(=O)CN(C)Cc2nc(=O)c3ccccc3[nH]2)c(C)n1CC1COc2ccccc2O1 (centres undefined) | > 10 µM | IC50 [1]: 0.371 µM
CCN1CCc2nc(NC(=O)c3ccccc3Nc3ccc(F)cc3)sc2C1 | 8.04 µM | IC50 (PBLUC_HILL_SLOPE 2.71, PBLUC_R_SQUARED 0.663, read-out: LUCIFERASE INFECTION ASSAY - IC50): 3.58 µM
CCOC(=O)c1c(NC(=O)COC(=O)c2ccccc2Nc2cccc(C)c2C)sc(C(=O)N(C)C)c1C | > 10 µM | IC50 [1]: > 10 µM
O=C(CSCc1nc2ccccc2[nH]1)Nc1nc(-c2ccc(NC(=O)c3ccccc3)cc2)cs1 | > 10 µM | IC50 (PBLUC_HILL_SLOPE 14.9, PBLUC_R_SQUARED 0.81, read-out: LUCIFERASE INFECTION ASSAY - IC50): 9.28 µM
CCOC(=O)c1sc2ncn(-n3c(C)ccc3C)c(=O)c2c1C | 7.62 µM | IC50 (PBLUC_HILL_SLOPE 2.28, PBLUC_R_SQUARED 0.71, read-out: LUCIFERASE INFECTION ASSAY - IC50): 2.9 µM

SMILES | IC90 | also measured
CC1CC(NC(=O)c2cc3c(=O)n4ccccc4nc3n2C)CC(C)(C)C1 (centres undefined) | 2.74 µM | IC50 (PBLUC_HILL_SLOPE 172, PBLUC_R_SQUARED 0.0501, read-out: LUCIFERASE INFECTION ASSAY - IC50): 2.7 µM
COCCCn1c(C)cc(C(=O)CSc2nc3scc(-c4ccccc4)c3c(=O)n2C)c1C | > 10 µM | IC50 (FFLUC_HILL_SLOPE 7.71, FFLUC_R_SQUARED 0.356, PBLUC_HILL_SLOPE 2.63, PBLUC_R_SQUARED 0.68, read-out: LUCIFERASE INFECTION ASSAY - IC50): 6.41 µM
CC(=O)c1ccc(-c2cnc3sc(NCCN4CCOCC4)nn23)s1 | > 8.74 µM | IC50 (PBLUC_HILL_SLOPE 1.89, PBLUC_R_SQUARED 0.43, read-out: LUCIFERASE INFECTION ASSAY - IC50): 5.97 µM
C/C(=N\NC(=S)Nc1cccc(Cl)c1C)c1cccc(C(F)(F)F)c1 | > 10 µM | IC50 (HEPG2TOX_HILL_SLOPE 2.50, 1.90, HEPG2TOX_R_SQUARED 0.489, 0.932, PBLUC_HILL_SLOPE 2.58, PBLUC_R_SQUARED 0.215, read-out: LUCIFERASE INFECTION ASSAY - IC50): 7.21 µM
CC(C)n1ncc2cc(C(=O)Nc3ccc4oc5ccccc5c4c3)cnc21 | 6.74 µM | IC50 (HEPG2TOX_HILL_SLOPE 0.893, HEPG2TOX_R_SQUARED 0.928, PBLUC_HILL_SLOPE 1.69, PBLUC_R_SQUARED 0.728, read-out: LUCIFERASE INFECTION ASSAY - IC50): 1.84 µM
CCN(CC)S(=O)(=O)c1ccc(N2CCOCC2)c(NC(=O)c2cc(-c3cc(OC)c(OC)c(OC)c3)nc3ccccc23)c1 | 8.54 µM | IC50 (PBLUC_HILL_SLOPE 2.9, PBLUC_R_SQUARED 0.79, read-out: LUCIFERASE INFECTION ASSAY - IC50): 4.01 µM
COc1cncc(-c2cncc(Nc3ccc(C(C)C)cc3)c2)c1 | 5.21 µM | IC50 (PBLUC_HILL_SLOPE 9.07, PBLUC_R_SQUARED 0.477, read-out: LUCIFERASE INFECTION ASSAY - IC50): 4.09 µM
Cc1ccc2c(c1)C1CN(C)CCC1N2C(=O)c1cc(-c2ccc(F)cc2)nc2ccccc12 (centres undefined) | > 10 µM | IC50 [1]: > 10 µM
CS(=O)(=O)N1CCCc2cc(C(=O)Nc3[nH]nc4ccccc34)ccc21 | > 10 µM | IC50 (PBLUC_HILL_SLOPE 1.05, PBLUC_R_SQUARED 0.487, read-out: LUCIFERASE INFECTION ASSAY - IC50): 4.21 µM
CCOC(=O)c1sc(NC(=O)c2ccc(C)s2)cc1C | > 10 µM | IC50 [1]: > 10 µM
COc1ccc(NCC2(c3ccnc(-c4ccccc4Cl)c3)CC2)cc1 | 8.59 µM | IC50 (HEPG2TOX_HILL_SLOPE 7.95, HEPG2TOX_R_SQUARED 0.722, PBLUC_HILL_SLOPE 6.14, PBLUC_R_SQUARED 0.58, read-out: LUCIFERASE INFECTION ASSAY - IC50): 6.01 µM
Cc1n(-c2ccccc2)c2c([n+]1C)C(=O)c1ccccc1C2=O | 0.202 µM | IC50 (HEPG2TOX_HILL_SLOPE 0.753, HEPG2TOX_R_SQUARED 0.901, PBLUC_HILL_SLOPE 2.16, PBLUC_R_SQUARED 0.72, read-out: LUCIFERASE INFECTION ASSAY - IC50): 0.0731 µM
Cc1nc2ccccn2c1-c1ccnn1S(=O)(=O)c1ccc(F)cc1 | 3.78 µM | IC50 (HEPG2TOX_HILL_SLOPE 1.46, HEPG2TOX_R_SQUARED 0.888, PBLUC_HILL_SLOPE 12.2, PBLUC_R_SQUARED 0.241, read-out: LUCIFERASE INFECTION ASSAY - IC50): 3.16 µM
CNc1cc(-c2ccc(O)cc2C)nc2ccnn12 | 8.61 µM | IC50 (HEPG2TOX_HILL_SLOPE 3.86, HEPG2TOX_R_SQUARED 0.988, PBLUC_HILL_SLOPE 1.91, PBLUC_R_SQUARED 0.706, read-out: LUCIFERASE INFECTION ASSAY - IC50): 2.73 µM
O=C(Nc1nc2ccccc2[nH]1)c1cccnc1Nc1ccccc1F | 3.81 µM | IC50 (HEPG2TOX_HILL_SLOPE 1.38, HEPG2TOX_R_SQUARED 0.863, PBLUC_HILL_SLOPE 3.37, PBLUC_R_SQUARED 0.741, read-out: LUCIFERASE INFECTION ASSAY - IC50): 1.98 µM
CC(C)Cc1nc2oc3c(NCC4CCCO4)ncnc3c2c2c1CCC2 (centres undefined) | 4.52 µM | IC50 (PBLUC_HILL_SLOPE 12.2, PBLUC_R_SQUARED 0.0912, read-out: LUCIFERASE INFECTION ASSAY - IC50): 3.77 µM
